Results on 9 compounds are retold here after ChEMBL document CHEMBL1146531, “Steroidal saponins from the bark of Dracaena draco and their cytotoxic activities” (J Nat Prod, 2003).

Experiment [1] deals with HL-60. Kind of experiment: Cytotoxicity against human HL60 cells after 72 hrs by MTT assay. To be noted: HL-60, 72 h. Type of experiment: functional, cell-based. On the technique in general: Formazan colour is commonly taken as a measure of viable cells.
Experiment [2] deals with HL-60. As to the kind of experiment: Induction of apoptosis in human HL60 cells assessed as apoptotic cells at 30 uM after 12 hrs measured by morphological change. Type of experiment: functional.
In a further experiment the test system is U-937. As to the kind of experiment: Cytotoxicity against human U937 cells. Format: functional, cell-based.
Experiment [3] deals with HL-60. As to the kind of experiment: Induction of apoptosis in human HL60 cells assessed as PARP cleavage at 30 uM after 12 hrs by Western blot analysis. Format: functional, cell-based. Background: A western blot detects proteins with antibodies after separation by electrophoresis.
Experiment [4] concerns HL-60. Kind of experiment: Cytotoxicity against human HL60 cells after 48 hrs by MTT assay. Type of experiment: functional, cell-based.

The structures appear in SMILES notation. Calls of active or inactive are those of the source. No cut-off for these calls is given here. Bounds are passed on as bounds.

Usually IC50 stands for the concentration that inhibits the measured activity by half. Read a low IC50 as greater potency. In the experiment on HL-60 [1], `C[C@@H]1CC[C@@]2(OC1)O[C@H]1C[C@H]3[C@@H]4CC=C5C[C@@H](O[C@@H]6O[C@H](CO)[C@@H](O[C@@H]7O[C@@H](C)[C@H](O)[C@@H](O)[C@H]7O)[C@H](O)[C@H]6O)CC[C@]5(C)[C@H]4CC[C@]3(C)[C@H]1[C@@H]2C` returned an IC50 of more than 100 µM.

Regarding `CO[C@]1(CC[C@@H](C)CO[C@@H]2O[C@H](CO)[C@@H](O)[C@H](O)[C@H]2O)O[C@H]2C[C@H]3[C@@H]4CC=C5C[C@@H](O[C@@H]6O[C@H](CO)[C@@H](O)[C@H](O[C@@H]7O[C@H](CO)[C@@H](O)[C@H](O)[C@H]7O)[C@H]6O[C@@H]6O[C@@H](C)[C@H](O)[C@@H](O)[C@H]6O)CC[C@]5(C)[C@H]4CC[C@]3(C)[C@H]2[C@@H]1C`, 7.2 µM corresponded to half-maximal inhibition in the experiment on HL-60 [1] (IC50).

Regarding `C=C1CO[C@@]2(O[C@H]3C[C@H]4[C@@H]5CC=C6C[C@@H](O)C[C@@H](O[C@@H]7OC[C@H](O)[C@H](O)[C@H]7O[C@@H]7O[C@@H](C)[C@H](OC(C)=O)[C@@H](O)[C@H]7O)[C@]6(C)[C@H]5CC[C@]4(C)[C@H]3[C@@H]2C)[C@@H](O)[C@H]1O`, in the experiment on HL-60 [1], the concentration for half-maximal inhibition (IC50) is more than 100 µM.

In the experiment with HL-60 [1], `C[C@@H]1CC[C@@]2(OC1)O[C@H]1C[C@H]3[C@@H]4CC=C5C[C@@H](O[C@@H]6O[C@H](CO)[C@@H](O[C@@H]7O[C@@H](C)[C@H](O)[C@@H](O)[C@H]7O)[C@H](O)[C@H]6O[C@@H]6O[C@@H](C)[C@H](O)[C@@H](O)[C@H]6O)CC[C@]5(C)[C@H]4CC[C@]3(C)[C@H]1[C@@H]2C` [DIOSCIN] registered a half-maximal inhibitory concentration (IC50) of 2 µM.

Take `C=C1CO[C@@]2(O[C@H]3C[C@H]4[C@@H]5CC=C6C[C@@H](O)C[C@@H](O[C@@H]7OC[C@H](O)[C@H](O)[C@H]7O[C@@H]7O[C@@H](C)[C@H](OC(C)=O)[C@@H](OC(C)=O)[C@H]7OC(C)=O)[C@]6(C)[C@H]5CC[C@]4(C)[C@H]3[C@@H]2C)[C@@H](O)[C@H]1O` [DRACONIN A]: the Activity with HL-60 [2] was 35.1%; in the experiment on HL-60 [3], “Dose-dependent effect”. For the same compound, the results for the IC50 with U-937 and in the experiment on HL-60 [1] were 6.8 µM and 9.7 µM, respectively.

Consider `C=C1CO[C@@]2(O[C@H]3C[C@H]4[C@@H]5CC=C6C[C@@H](O)C[C@@H](O[C@@H]7OC[C@H](O)[C@H](O)[C@H]7O[C@@H]7O[C@@H](C)[C@H](O)[C@@H](OC(C)=O)[C@H]7OC(C)=O)[C@]6(C)[C@H]5CC[C@]4(C)[C@H]3[C@@H]2C)[C@@H](O)[C@H]1O` [DRACONIN B], for which, in the experiment with HL-60 [2], the Activity amounted to 9.4%. Further, the IC50 in the experiment with HL-60 [1] was found to be 39 µM.

For the compound `C=C1CO[C@@]2(O[C@H]3C[C@H]4[C@@H]5CC=C6C[C@@H](O)C[C@@H](O[C@@H]7OC[C@H](O)[C@H](O)[C@H]7O[C@@H]7O[C@@H](C)[C@H](O)[C@@H](O)[C@H]7OC(C)=O)[C@]6(C)[C@H]5CC[C@]4(C)[C@H]3[C@@H]2C)[C@@H](O)[C@H]1O` [DRACONIN C], the Activity with HL-60 [2] is 5%. The same compound had an IC50 in the experiment with HL-60 [1] of more than 100 µM.

Regarding `C[C@@H]1CC[C@@]2(OC1)O[C@H]1C[C@H]3[C@@H]4CC=C5C[C@@H](O[C@@H]6O[C@H](CO)[C@@H](O)[C@H](O[C@@H]7O[C@H](CO)[C@@H](O)[C@H](O)[C@H]7O)[C@H]6O[C@@H]6O[C@@H](C)[C@H](O)[C@@H](O)[C@H]6O)CC[C@]5(C)[C@H]4CC[C@]3(C)[C@H]1[C@@H]2C` [GRACILLIN], the IC50 with HL-60 [1] stood at 3.7 µM.

On to `CO[C@]1(CC[C@@H](C)CO[C@@H]2O[C@H](CO)[C@@H](O)[C@H](O)[C@H]2O)O[C@H]2C[C@H]3[C@@H]4CC=C5C[C@@H](O[C@@H]6O[C@H](CO)[C@@H](O[C@@H]7O[C@@H](C)[C@H](O)[C@@H](O)[C@H]7O)[C@H](O)[C@H]6O[C@@H]6O[C@@H](C)[C@H](O)[C@@H](O)[C@H]6O)CC[C@]5(C)[C@H]4CC[C@]3(C)[C@H]2[C@@H]1C` [METHYLPROTODIOSCIN], for which it took 7.3 µM to reach half-maximal inhibition in the experiment on HL-60 [1] (IC50). The outcome in the experiment with HL-60 [4] was Active.
